The conditions of series [1]: in vivo, cited from earlier work.
The test system of series [2] is HCT116 hTRdm-fLUC#32 tumors. The settings on record: for Tumor Regression during Treatment, Average / Tumor Regression during Treatment, Mean: oral daily 10 days, Cape 400 mg/kg/day.
For series [3], the system named is HCT116 hTRdm-fLUC#32 tumors. The following applies: for Tumor Regression during Treatment, Average / Tumor Regression during Treatment, Mean: oral daily 18 days, Cape 500 mg/kg/day, anisomycin L 0.000027, H 0.000054 mg/kg/day.
For series [4], the system named is SET Ribosome.
Series [5] relates to SET Ribosome. Description: TPA Reference Standard Response Modifier Assay with ribosome binding translation inhibitors, HEK293 hTRdm-fLUC#13. The series is classed as cell-based, human. The settings on record: with 100 nM TPA; 6 hours.
The test system of series [6] is SET Ribosome. As to the kind of experiment: Cobalt chloride Dose-dependent Modifier Assay, HEK293 mTRdm-fLUC#12. The series is classed as cell-based, human. The settings on record: 6 hours.
The subject of series [7] is HCT116 hTRdm-fLUC#32 tumors. In kind it is in vivo, nude mice. The following applies: cremophorEL 0.5 mg/kg/day Q2Dx5; cyclophosphamide 120 mg/kg/day Q4Dx3; IV.
For series [8], the system named is SET Ribosome. In kind it is in vivo, nude mice. The following applies: individual animals; for % Induction: post- vs pre-treatment.
The test system of series [9] is SET Ribosome. Description: Rapamycin dose response and TPA+Taxol Modifier Assay, MCF7 TR Cell Panel.
Procedure: To tease apart the growth and stress responses, cells were treated with varying doses of rapamycin, incubated at 37° C. for 6 hours, and assayed for fLuc activity.
In other studies, the effects of different rapamycin concentrations were measured in combination with the TPA+Taxol Reference Standard response in the MCF7 derived cell lines that express the fLuc reporter either constitutively (CMV lines) or as a part of the TR Expression Cassette (hTR and mTR lines). […] Cells were treated with 100 nM TPA, 500 nM paclitaxel, and varying concentrations of rapamycin, incubated at 37° C. for 6 hours, and assayed for fLuc activity.
Select members of the MCF7 TR Cell Panel were plated into 96-well microtiter plates and processed as described for a Cell Count Dose-dependent Modifier protocol. Rapamycin concentrations were tested for an ability to alter the Reference Standard responses produced by a 100 nM TPA/500 nM paclitaxel combination. Rapamycin was applied at doses ranging from 1 nM to 1 μM concentrations. All dilutions were prepared in complete growth media. Cells were incubated for 6 hrs, processed, and assayed for luciferase activity as described.
Setting [10] is: single listed concentration: dbcAMP 5 mM, TPA 100 nM, Paclitaxel 500 nM, MG132 50 uM, Colchicine 1 uM, MRA 150 nM, Bortezomib 50 nM.
[11] abbreviates: MCF7 TR Class 3/4 lines, 100 nM TPA + 500 nM paclitaxel, 6 hours.

Where “and” joins values, the source holds several entries; their conditions need not be identical. Equal entries are not always repeated. Entries after “also recorded” stand apart in the source; their conditions may differ. Where two headings read alike, the source gives them in different places. Marks after values point to notes of the source that are not given here. Residues, ends and D or L forms follow the SMILES beside them. *: point of attachment. Cbz = O=C(OCc1ccccc1)*

Take `CCCCCOC(=O)Nc1nc(=O)n([C@@H]2O[C@H](C)[C@@H](O)[C@H]2O)cc1F` [capecitabine, pentyl [1-(3,4-dihydroxy-5-methyltetrahydrifuran-2-yl)-5-fluoro-2-oxo-1H-pyrimidine-4-yl]carbamate]: the “time of maximal metabolite concentration in the plasma” value in series [1] (iv) is 2 to 3 h. In addition, the survival mean in [2] (Example 3 text on FIG. 16) was determined as 47 days. In addition, in series [2] (Kaplan-Meier, FIG. 16 description), the sacrifice mean stood at 47 days. Further, in series [2], the “Tumor Regression during Treatment, Average” value came to 35.2% and the “Tumor Regression during Treatment, Mean” value stood at 35.2%. In addition, in series [2] (listed as Cape), the “Tumor Regression during Treatment, Average” value is on record as 29.4% and the “Tumor Regression during Treatment, Mean” value is on record as 35.2%. Moreover, in [3] (mouse, in vivo), the “Animal weight averages, day 7” value came out at 20.88 g; the “Animal weight averages, day 10” value stood at 20.88 g; the “Animal weight averages, day 13” value was determined as 20.36 g; the “Animal weight averages, day 15” value turned out to be 19.38 g. In [3] (mouse, in vivo), the “Animal weight averages, day 18” value came out at 18.50 g; the “Animal weight averages, day 24” value came out at 19.56 g; the “Animal weight averages, day 31” value amounted to 21.17 g; the “Animal weight averages, day 35” value turned out to be 22.32 g. For the same molecule, in series [3] (mouse, in vivo), the “Animal weight averages, day 38” value is listed as 22.99 g; the spontaneous death result is reported as “one”; the survival mean stood at 24 days. Moreover, in series [3], the “Tumor Regression during Treatment, Average” value was found to be 53.2% and the “Tumor Regression during Treatment, Mean” value stood at 56%. Besides, in series [3] (listed as Cape), the “Tumor Regression during Treatment, Average” value was 53.2% and the “Tumor Regression during Treatment, Mean” value came out at 56.0%.
On to `CC(=O)O[C@H]1C(=O)[C@@]2(C)[C@H]([C@H](OC(=O)c3ccccc3)[C@]3(O)C[C@H](OC(=O)[C@H](O)[C@@H](NC(=O)c4ccccc4)c4ccccc4)C(C)=C1C3(C)C)[C@]1(OC(C)=O)CO[C@@H]1C[C@@H]2O` [Paclitaxel, 5β,20-epoxy-1,2α,4,7β,10β,13α-hexahydroxytax-1-1-en-9-14,10-diacetate 2-benzoate 13-ester with (2R,3S)-N-benzoyl-3-phenylisoserine], for which the “SET Response” value in the series on SET Ribosome [4] (setting [10]) was “Agonist”.
Take polyoxyl 35 castor oil [cremophorEL]: in [3] (mouse, in vivo), the “Animal weight averages, day 7” value was 22.25 g; the “Animal weight averages, day 10” value was 22.39 g; the “Animal weight averages, day 13” value stood at 22.23 g; the “Animal weight averages, day 15” value is 21.60 g. In [3] (mouse, in vivo), the “Animal weight averages, day 18” value is 21.93 g; the “Animal weight averages, day 24” value amounted to 21.59 g; the “Animal weight averages, day 31” value came to 20.22 g.
Consider `C[C@@H]1C[C@@H]([C@H](O)CC2CC(=O)NC(=O)C2)C(=O)[C@@H](C)C1` [cycloheximide], for which the “IC100 (100% SET Ribosome inhibition)” value with SET Ribosome [5] is over 10 µM.
On to `CNc1ccc2oc(C[C@H]3O[C@@]4(CC[C@H]3C)O[C@H]([C@H](C)C(=O)c3ccc[nH]3)[C@H](C)C[C@H]4C)nc2c1C(=O)O` [Calon, Calcimycin], for which the “SET Response” value in the series with SET Ribosome [4] was “Antagonist; also recorded: Agonist”.
`COc1ccc(C[C@H](N)C(=O)N[C@H]2[C@@H](O)[C@H](n3cnc4c(N(C)C)ncnc43)O[C@@H]2CO)cc1` [puromycin]: in the series with SET Ribosome [5], the “IC100 (100% SET Ribosome inhibition)” value was over 25 µM.
As to `COc1cc2c(c(OC)c1OC)-c1ccc(OC)c(=O)cc1[C@@H](NC(C)=O)CC2` [Colchicine, N-[(7S)-1,2,3,10-tetramethoxy-9-oxo-5,6,7,9-tetrahydrobenzo[a]heptalen-7-yl]acetamide], in the series with SET Ribosome [4], the “SET Response” value is “Agonist”.
With `CC(C)C[C@@H](C=O)NC(=O)[C@H](CC(C)C)NC(=O)[C@H](CC(C)C)NC(=O)OCc1ccccc1` [MG132, Z-Leu-Leu-Leu-aldehyde] (Cbz-Leu-Leu-Leu-aldehyde), the “SET Response” value with SET Ribosome [4] is “Antagonist/; also recorded: Agonist”.
With `[Cl-].[Cl-].[Co+2]` [cobalt(II) chloride], the “doses repressing background SET Ribosome activity” value in the series on SET Ribosome [6] (cobalt applied alone) is over 50 µM. Besides, the “doses inhibiting TPA SET activation” value is over 200 µM with SET Ribosome [6] (with 100 nM TPA) and at least 200 µM in the series on SET Ribosome [6] (with 100 nM TPA, listed as CoCl2). Moreover, the IC50 in the series with SET Ribosome [6] (with 100 nM TPA, read-out: IC50, inhibition of SET activity in cells treated with TPA) is about 1000 µM; in the series with SET Ribosome [6] (with paclitaxel Reference Standard, read-out: IC50, inhibition of SET Ribosome activation by paclitaxel) it was about 200 µM. Further, the “doses inhibiting SET Ribosome activation by paclitaxel (Taxol)” value was over 50 µM in the series on SET Ribosome [6] (with paclitaxel Reference Standard) and at least 50 µM with SET Ribosome [6] (with paclitaxel Reference Standard, listed as CoCl2).
`O=P1(N(CCCl)CCCl)NCCCO1` (stereo not shown) [Cyclophosphamide, RS-N,N-bis(2-chloroethyl)-1,3,2-oxazaphosphinan-2-amine 2-oxide]: in series [7], the “effect on tumor growth” value is reported as “slowed tumor growth”. In addition, in [1] (po), the elimination half-life was 3 to 12 h and the oral bioavailability was over 75%. In series [1], the “dose excreted in the urine as unchanged drug” value was 5-25%. Further, in the series with SET Ribosome [8] (IV, CremophorEL 0.5 mg/kg, paclitaxel 20 mg/kg, cyclophosphamide 120 mg/kg, average tumor size 125 mg), the “6 hr Post-treatment Value (bioluminescence signal intensity)” value is 38.6 ×10e6 photons and 50.4 ×10e6 photons and 101.0 ×10e6 photons and 39.3 ×10e6 photons and 82.5 ×10e6 photons and 56.8 ×10e6 photons. For the same molecule, in the series with SET Ribosome [8] (average tumor size 500 mg), the “6 hr Post-treatment Value (bioluminescence signal intensity)” value is 75.0 ×10e6 photons and 81.5 ×10e6 photons and 48.8 ×10e6 photons; the “% Induction” value is 204.9% and 368.8% and 109.7%. For the same molecule, the “% Induction” value with SET Ribosome [8] (average tumor size 125 mg) is 12,866.7% *** and 381.8% and 167.2% and 13,100.0% *** and 373.3% and 18,933.3% ***.
As to `CC(C)C[C@H](NC(=O)[C@H](Cc1ccccc1)NC(=O)c1cnccn1)B(O)O` [Bortezomib (Velcade), [(1R)-3-methyl-1-[[(2S)-1-oxo-3-phenyl-2-[(pyrazinylcarbonyl)amino]propyl]amino]butyl] boronic acid], in the series on SET Ribosome [4] (setting [10]), the “SET Response” value was “Antagonist/; also recorded: Agonist”.
With `CO[C@H]1C[C@@H]2CC[C@@H](C)[C@@](O)(O2)C(=O)C(=O)N2CCCC[C@H]2C(=O)O[C@H]([C@H](C)C[C@@H]2CC[C@@H](O)[C@H](OC)C2)CC(=O)[C@H](C)/C=C(\C)[C@@H](O)[C@@H](OC)C(=O)[C@H](C)C[C@H](C)/C=C/C=C/C=C/1C` [rapamycin], in the series with SET Ribosome [9] (setting [11]), the “concentrations giving SET decline in TPA+Taxol treated samples” value is at least 100 nM and the “dose up to which SET of TPA+Taxol treated samples is super-induced” value is at most 50 nM. For the same molecule, the “dose giving a spike in fLuc activity” value in the series with SET Ribosome [9] (MCF7 TR Class 3/4 lines, rapamycin alone, 6 hours) was found to be 50 nM. Also, the “doses at which the magnitude of SET is reduced but not eliminated” value in the series with SET Ribosome [9] (MCF7 cells, 6 hrs) was over 50 nM.

A word on the IC50: it is the concentration needed to halve the response being measured.

Source of the values: patent US20170363612A1, “COMPOSITIONS AND METHODS RELATING TO PROLIFERATIVE DISORDERS” (Wayne State University, priority 2014, published 2017).
